Results on 18 molecules are retold here after patent publication US10364245B2 (CHIESI FARMACEUTICI S.p.A., priority 2017, dated 2019).

For experiment [1], the system named is Peripheral Blood Mononuclear Cells (PBMCs), TNFα release. Briefly: LPS-stimulated PBMC TNFα release assay. It is filed as cell-based. The following applies: human PBMC, LPS (10 ng/ml), 18 h, compound 1 h before LPS; read-out: LPS-stimulated PBMC TNFα release inhibition. Put shortly:
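TNFα in cell-free supernatant, read on MSD plates, gave % inhibition curves and IC50 (≥3 separate experiments). Healthy-donor PBMCs had 1 h compound exposure at 37 °C in 1% FBS medium, then 18 h stimulation with 10 ng/ml LPS, after a 3 h serum-free rest.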

Another experiment addresses T1, p38 alpha (Homo sapiens, UniProt Q16539).
T1 construct: purchased Invitrogen PV3304
Nature of the experiment: P38 alpha enzyme inhibition assay (Alphascreen kinase activity assay). It is filed as biochemical. The following applies: 100 pM p38 alpha, 2 hours preincubation at 25° C., 250 μM ATP, ATF-2 fusion protein; read-out: p38α inhibition. In short, it runs like this:
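Phosphorylation of ATF-2 fusion protein (0.3 μg/ml) read by AlphaScreen with anti-phospho-ATF2 antibody after 1 h kinase reaction at 25 °C, initiated by 250 μM ATP. Compounds first incubated 2 h at 25 °C with 100 pM p38 alpha in pH 7.5 HEPES buffer, 1% DMSO. IC50 derived from concentration-response data.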

Counter-ions that a name gives are not always drawn.

T1 sequence (Q16539 whole entry): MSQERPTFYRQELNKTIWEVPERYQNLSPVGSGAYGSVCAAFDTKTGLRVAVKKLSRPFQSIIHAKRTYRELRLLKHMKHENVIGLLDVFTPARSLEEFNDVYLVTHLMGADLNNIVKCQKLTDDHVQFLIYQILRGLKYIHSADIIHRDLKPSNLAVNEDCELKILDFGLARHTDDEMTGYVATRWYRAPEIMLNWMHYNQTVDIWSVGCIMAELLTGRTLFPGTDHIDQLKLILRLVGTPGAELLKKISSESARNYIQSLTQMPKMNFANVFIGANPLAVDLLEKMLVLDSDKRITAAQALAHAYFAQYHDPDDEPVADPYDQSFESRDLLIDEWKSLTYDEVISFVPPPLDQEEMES

Turning to `CC(C)(C)c1cc(NC(=O)N[C@H]2CC[C@@H](Oc3ccc4nnc(C(C)(C)C)n4c3)c3ccccc32)nc(C(=O)N[C@H]2C[C@H](CO)C2)n1` [Example 83, 4-(tert-butyl)-6-(3-((1S,4R)-4-((3-(tert-butyl)-[1,2,4]triazolo[4,3-a]pyridin-6-yl)oxy)-1,2,3,4-tetrahydronaphthalen-1-yl)ureido)-N-((1s,3R)-3-(hydroxymethyl)-cyclobutyl)pyrimidine-2-carboxamide], the IC50 in experiment [1] was 1 to 5 nM; at p38 alpha, less than 1 nM.

With `COCC(C)(C)c1nnc2ccc(O[C@@H]3CC[C@H](NC(=O)Nc4cc(C(C)(C)C)nc(C(=O)NCCCN5CCOCC5)n4)c4ccccc43)cn12` [Example 121, 4-(tert-butyl)-6-(3-((1S,4R)-4-((3-(1-methoxy-2-methylpropan-2-yl)-[1,2,4]triazolo[4,3-a]pyridin-6-yl)oxy)-1,2,3,4-tetrahydronaphthalen-1-yl)ureido)-N-(3-morpholinopropyl)-pyrimidine-2-carboxamide], the IC50 in experiment [1] is 1 to 5 nM; on p38 alpha, less than 1 nM.

As to `CN1CC(C(=O)NCc2nc(NC(=O)N[C@H]3CC[C@@H](Oc4ccc5nnc(C(C)(C)C)n5c4)c4ccccc43)cc(C(C)(C)C)n2)C1` [Example 126, N-((4-(tert-butyl)-6-(3-((1S,4R)-4-((3-(tert-butyl)-[1,2,4]triazolo[4,3-a]pyridin-6-yl)oxy)-1,2,3,4-tetrahydronaphthalen-1-yl)ureido)pyrimidin-2-yl)methyl)-1-methylazetidine-3-carboxamide], the IC50 in experiment [1] is more than 5 nM; on p38 alpha it was less than 1 nM.

In the case of `Cc1nc(NC(=O)N[C@H]2CC[C@@H](Oc3ccc4nnc([C@]5(C)CCCN5C)n4c3)c3ccccc32)cc(C(C)(C)C)n1` [Example 40, 1-(6-(tert-Butyl)-2-methylpyrimidin-4-yl)-3-((1S,4R)-4-((3-((S)-1,2-dimethylpyrrolidin-2-yl)-[1,2,4]triazolo[4,3-a]pyridin-6-yl)oxy)-1,2,3,4-tetrahydronaphthalen-1-yl)urea], the IC50 is 1 to 5 nM in experiment [1] and less than 1 nM on p38 alpha.

`COc1ncc(C(C)(C)C)cc1NC(=O)N[C@H]1CC[C@@H](Oc2ccc3nnc([C@@H]4CCCN4C)n3c2)c2ccccc21` [Example 35, 1-(5-(tert-Butyl)-2-methoxypyridin-3-yl)-3-((1S,4R)-4-((3-((S)-1-methylpyrrolidin-2-yl)-[1,2,4]triazolo[4,3-a]pyridin-6-yl)oxy)-1,2,3,4-tetrahydronaphthalen-1-yl)urea hydrochloride Salt]: the IC50 (in experiment [1]; on p38 alpha) was less than 1 nM throughout.

As for `COC(C)(C)c1nnc2ccc(O[C@@H]3CC[C@H](NC(=O)Nc4cc(COCCN5CCOCC5)nc(C(C)(C)C)c4)c4ccccc43)cn12` [Example 57], the results for the IC50 (in experiment [1]; at p38 alpha) were more than 5 nM and 1 to 10 nM, respectively.

On to `CC[C@H](C)c1nnc2ccc(O[C@@H]3CC[C@H](NC(=O)Nc4cc(C(C)(C)C)nc(C(=O)NCCN5CCOCC5)n4)c4ccccc43)cn12` [Example 102, 4-(tert-butyl)-6-(3-((1S,4R)-4-((3-((S)-sec-butyl)-[1,2,4]triazolo[4,3-a]pyridin-6-yl)oxy)-1,2,3,4-tetrahydronaphthalen-1-yl)ureido)-N-(2-morpholinoethyl)-pyrimidine-2-carboxamide], for which the figures for the IC50 (in experiment [1]; on p38 alpha) were more than 5 nM and less than 1 nM, respectively.

`COC1CN(CCNC(=O)c2nc(NC(=O)N[C@H]3CC[C@@H](Oc4ccc5nnc(C(C)(C)C)n5c4)c4ccccc43)cc(C(C)(C)C)n2)C1` [Example 104, 4-(tert-butyl)-6-(3-((1S,4R)-4-((3-(tert-butyl)-[1,2,4]triazolo[4,3-a]pyridin-6-yl)oxy)-1,2,3,4-tetrahydronaphthalen-1-yl)ureido)-N-(2-(3-methoxyazetidin-1-yl)ethyl)pyrimidine-2-carboxamide]: the results for the IC50 (in experiment [1]; at p38 alpha) were less than 1 nM and 1 to 10 nM, respectively.

Consider `CC(C)(C)c1cc(NC(=O)N[C@H]2CC[C@@H](Oc3ccc4nnc(C(C)(C)C)n4c3)c3ccccc32)nc(C(=O)NCCN(CCO)CCO)n1` [Example 120, N-(2-(bis(2-hydroxyethyl)amino)ethyl)-4-(tert-butyl)-6-(3-((1S,4R)-4-((3-(tert-butyl)-[1,2,4]triazolo[4,3-a]pyridin-6-yl)oxy)-1,2,3,4-tetrahydronaphthalen-1-yl)ureido)pyrimidine-2-carboxamide], for which the IC50 in experiment [1] is more than 5 nM; on p38 alpha it was less than 1 nM.

On to `CN1CCC[C@@]1(C)c1nnc2ccc(O[C@@H]3CC[C@H](NC(=O)Nc4cc(C(C)(C)C)nc(C(=O)NCCO)n4)c4ccccc43)cn12` [Example 29, 4-(tert-Butyl)-6-(3-((1S,4R)-4-((3-((S)-1,2-dimethylpyrrolidin-2-yl)-[1,2,4]triazolo[4,3-a]pyridin-6-yl)oxy)-1,2,3,4-tetrahydronaphthalen-1-yl)ureido)-N-(2-hydroxyethyl)pyrimidine-2-carboxamide], for which the IC50 (in experiment [1]; at p38 alpha) was less than 1 nM in each case.

For the molecule `CC(C)(C)c1cc(NC(=O)N[C@H]2CC[C@@H](Oc3ccc4nnc(C(C)(C)C)n4c3)c3ccccc32)nc(CN(CCO)CCO)n1` [Example 87, 1-(2-((bis(2-hydroxyethyl)amino)methyl)-6-(tert-butyl)pyrimidin-4-yl)-3-((1S,4R)-4-((3-(tert-butyl)-[1,2,4]triazolo[4,3-a]pyridin-6-yl)oxy)-1,2,3,4-tetrahydronaphthalen-1-yl)urea], the results for the IC50 (in experiment [1]; on p38 alpha) were more than 5 nM and less than 1 nM, respectively.

With `C[C@H]1CCCCN1c1nnc2ccc(O[C@@H]3CC[C@H](NC(=O)Nc4cc(C(C)(C)C)nc(CN(C)C)n4)c4ccccc43)cn12` [Example 15, 1-(6-(tert-Butyl)-2-((dimethylamino)methyl)pyrimidin-4-yl)-3-((1S,4R)-4-((3-((S)-2-methylpiperidin-1-yl)-[1,2,4]triazolo[4,3-a]pyridin-6-yl)oxy)-1,2,3,4-tetrahydronaphthalen-1-yl)urea], the IC50 is more than 5 nM in experiment [1] and less than 1 nM at p38 alpha.

Regarding `CN1CCN(C(C)(C)c2nnc3ccc(O[C@@H]4CC[C@H](NC(=O)Nc5cc(C(=O)NCCO)nc(C(C)(C)C)c5)c5ccccc54)cn23)CC1` [Example 200, 6-(tert-Butyl)-N-(2-hydroxyethyl)-4-(3-((1S,4R)-4-((3-(2-(4-methylpiperazin-1-yl)propan-2-yl)-[1,2,4]triazolo[4,3-a]pyridin-6-yl)oxy)-1,2,3,4-tetrahydronaphthalen-1-yl)ureido)picolinamide formate salt], the values for the IC50 (in experiment [1]; at p38 alpha) were more than 5 nM and less than 1 nM, respectively.

With `CN(C)CCNC(=O)c1nc(NC(=O)N[C@H]2CC[C@@H](Oc3ccc4nnc([C@@H]5COCCN5C)n4c3)c3ccccc32)cc(C(C)(C)C)n1` [Example 214, 4-(tert-Butyl)-N-(2-(dimethylamino)ethyl)-6-(3-((1S,4R)-4-((3-((R)-4-methylmorpholin-3-yl)-[1,2,4]triazolo[4,3-a]pyridin-6-yl)oxy)-1,2,3,4-tetrahydronaphthalen-1-yl)ureido)pyrimidine-2-carboxamide], the IC50 in experiment [1] was more than 5 nM; on p38 alpha, 1 to 10 nM.

On to `COCC(C)(C)c1nnc2ccc(O[C@@H]3CC[C@H](NC(=O)Nc4cc(C(C)(C)C)nc(C(=O)NCC(C)(C)N(C)C)n4)c4ccccc43)cn12` [Example 7, 4-(tert-Butyl)-N-(2-(dimethylamino)-2-methylpropyl)-6-(3-((1S,4R)-4-((3-(1-methoxy-2-methylpropan-2-yl)-[1,2,4]triazolo[4,3-a]pyridin-6-yl)oxy)-1,2,3,4-tetrahydronaphthalen-1-yl)ureido)pyrimidine-2-carboxamide], for which the values for the IC50 (in experiment [1]; at p38 alpha) were 1 to 5 nM and less than 1 nM, respectively.

Take `CC[C@H](C)c1nnc2ccc(O[C@@H]3CC[C@H](NC(=O)Nc4cc(C(=O)NCC(C)(C)N(C)C)nc(C(C)(C)C)c4)c4ccccc43)cn12` [Example 202, 6-(tert-Butyl)-4-(3-((1S,4R)-4-((3-((S)-sec-butyl)-[1,2,4]triazolo[4,3-a]pyridin-6-yl)oxy)-1,2,3,4-tetrahydronaphthalen-1-yl)ureido)-N-(2-(dimethylamino)-2-methylpropyl)-picolinamide formate salt]: the IC50 lay within 1 to 5 nM in experiment [1] and 1 to 10 nM at p38 alpha.

On to `COC1CN(CCNC(=O)c2cc(C(C)(C)C)cc(NC(=O)N[C@H]3CC[C@@H](Oc4ccc5nnc(C(C)(C)C)n5c4)c4ccccc43)n2)C1` [Example 210, 4-(tert-butyl)-6-(3-((1S,4R)-4-((3-(tert-butyl)-[1,2,4]triazolo[4,3-a]pyridin-6-yl)oxy)-1,2,3,4-tetrahydronaphthalen-1-yl)ureido)-N-(2-(3-methoxyazetidin-1-yl)ethyl)picolinamide formate salt], for which the IC50 in experiment [1] is 1 to 5 nM; on p38 alpha it was less than 1 nM.

`CC[C@H](C)c1nnc2ccc(O[C@@H]3CC[C@H](NC(=O)Nc4cc(C(C)(C)C)nc(C(=O)NCCN(C)CCOC)n4)c4ccccc43)cn12` [Example 105, 4-(tert-butyl)-6-(3-((1S,4R)-4-((3-((S)-sec-butyl)-[1,2,4]triazolo[4,3-a]pyridin-6-yl)oxy)-1,2,3,4-tetrahydronaphthalen-1-yl)ureido)-N-(2-((2-methoxyethyl)(methyl)-amino)ethyl)pyrimidine-2-carboxamide]: the IC50 in experiment [1] is 1 to 5 nM; at p38 alpha it was less than 1 nM.
